Assay [1] has as its system isolated rabbit aortic rings. Briefly: tissue or blood.
The test system of assay [2] is blood. The following applies: cited from earlier work.

Here are results for three compounds from patent US6180664A (priority 1996, dated 2001).

Molecules are shown by their SMILES.

In the case of `CCOC(=O)C(CO[N+](=O)[O-])(CO[N+](=O)[O-])C(=O)OCC` [Bis-MA diethyl ester, Diethyl 2,2-bis(nitryloxymethyl)malonate], in assay [1] (Oryctolagus cuniculus, read-out: pD2 value (converted)), the EC50 was 251 nM.

The compound `O=[N+]([O-])OCC(CO)(CO)CO` [PEMN, pentaerythrityl mononitrate] registered a pD2 value in assay [1] of 5.

In the case of `CCCCCCCCCCCCCCCCOCC(COP(=O)([O-])OCC[N+](C)(C)C)OC(C)=O` (stereo not shown) [platelet activation factor], in assay [2], the “concentration inducing platelet aggregation” value is reported as 0.1 nM and the concentration inducing vasodilation is 0.1 nM.
